Structures are written as SMILES.

The values that follow come from US6835745B2, “Phenyl substituted thiophenes as estrogenic agents” (Wyeth, priority 2002, dated 2004).

One data set concerns the target T1, human ERα (Homo sapiens, UniProt P03372).
T1 construct: amino acids M250-V595 of human ERα; His (N); Flag (C); made in house; host or cells: E. coli BL21(DE3), clarified lysate
T1 sequence (P03372 250-595): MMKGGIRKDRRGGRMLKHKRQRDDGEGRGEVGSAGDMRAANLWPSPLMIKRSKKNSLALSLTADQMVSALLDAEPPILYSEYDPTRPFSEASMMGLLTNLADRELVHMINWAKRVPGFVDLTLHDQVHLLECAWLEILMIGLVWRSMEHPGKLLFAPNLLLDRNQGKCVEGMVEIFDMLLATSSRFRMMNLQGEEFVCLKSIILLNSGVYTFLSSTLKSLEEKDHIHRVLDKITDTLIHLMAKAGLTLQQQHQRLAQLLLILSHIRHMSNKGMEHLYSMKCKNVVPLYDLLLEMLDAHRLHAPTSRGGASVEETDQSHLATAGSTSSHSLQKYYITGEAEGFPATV
The experiment in a line: Radioligand binding competition with [3H]-17β-estradiol, ERα. The conditions noted are these: human ERα ligand binding domain extract, read-out: ER-α IC50.

The next data set addresses T2, human ERβ (Homo sapiens, UniProt Q92731).
T2 construct: M214-Q530 of human ERβ; Flag (C); made in house; host or cells: E. coli BL21(DE3), clarified lysate
The experiment in a line: Radioligand binding competition with [3H]-17β-estradiol, ERβ. The note with it: human ERβ ligand binding domain extract, read-out: ER-β IC50.

In data set [1] the test system is metallothionein-II mRNA in Saos-2 cells. The experiment in a line: Regulation of metallothionein II mRNA in Saos-2 cells. The data set is classed as cell-based. From the text: Estrogens acting through ERβ, but not ERα can upregulate metallothionein II mRNA levels in Saos-2 cells as described by Harris [Endocrinology 142: 645-652 (2001)]. Results from this test procedure can be combined with results from the test procedure described below (ERE reporter test procedure) to generate a selectivity profile for compounds of this invention (see also WO 00/37681).

T2 sequence (Q92731 214-530): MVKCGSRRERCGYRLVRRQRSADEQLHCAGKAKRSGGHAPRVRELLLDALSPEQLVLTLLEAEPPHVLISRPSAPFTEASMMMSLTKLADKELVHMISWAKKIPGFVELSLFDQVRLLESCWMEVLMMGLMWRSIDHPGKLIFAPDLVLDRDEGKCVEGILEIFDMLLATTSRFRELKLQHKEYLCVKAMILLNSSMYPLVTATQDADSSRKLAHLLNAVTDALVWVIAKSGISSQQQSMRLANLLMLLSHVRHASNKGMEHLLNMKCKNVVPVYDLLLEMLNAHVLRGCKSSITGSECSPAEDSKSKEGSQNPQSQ

Regarding `Cc1c(-c2ccc(O)c(Cl)c2)sc(C=O)c1-c1ccc(O)c(F)c1` [Example 14, 5-(3-Chloro-4-hydroxyphenyl)-3-(3-fluoro-4-hydroxyphenyl)-4-methylthiophene-2-carbaldehyde], the melting point (in general, the temperature of the solid-liquid transition) fell in the range of 227 to 229 °C. The IC50 (as a rule, the midpoint of a concentration-inhibition curve) on human ERα is 157 nM. The concentration for half-maximal inhibition (IC50) on human ERβ was determined as 16 nM.

For the compound `Cc1c(-c2ccc(O)c(F)c2)sc(C=O)c1-c1ccc(O)cc1` [Example 8, 5-(3-Fluoro-4-hydroxyphenyl)-3-(4-hydroxyphenyl)-4-methyl-2-thiophenecarbaldehyde], the melting point is 227 to 229 °C. Further, the IC50 on human ERα was found to be 93 nM. Also, the half-inhibitory concentration (IC50) on human ERβ came to 5.3 nM.

Regarding `Cc1c(-c2ccc(O)cc2)sc(C#N)c1-c1ccc(O)cc1` [Example 19, 3,5-Bis(4-hydroxyphenyl)-4-methylthiophene-2-carbonitrile], the IC50 at human ERα worked out at 40 nM; on human ERβ, 3.6 nM.

Compound `Cc1c(-c2ccc(O)cc2)sc(C=O)c1-c1ccc(O)c(C=O)c1` [Example 6, 3-(3-Formyl-4-hydroxyphenyl)-5-(4-hydroxyphenyl)-4-methyl-2-thiophenecarbaldehyde] displayed a melting point of 228 to 230 °C. The IC50 on human ERα amounted to 515 nM. Also, the IC50 on human ERβ stood at 71 nM.

Take `Cc1c(-c2ccc(O)cc2)sc(C=NO)c1-c1cccc(O)c1` (mixture of isomers) [Example 16, 3-(3-Hydroxyphenyl)-5-(4-hydroxyphenyl)-4-methylthiophene-2-carbaldehyde oxime]: the IC50 at human ERα amounted to 275 nM; at human ERβ, 91 nM.

Consider `Cc1c(-c2ccc(O)cc2)sc(C=O)c1-c1ccc(O)c(F)c1` [Example 5, 3-(3-Fluoro-4-hydroxyphenyl)-5-(4-hydroxyphenyl)-4-methyl-2-thiophenecarbaldehyde], for which the IC50 at human ERα was 35.5 nM; on human ERβ, 1.8 nM.

`Cc1c(-c2cccc(O)c2)sc(C=NO)c1-c1ccc(O)cc1` (mixture of isomers) [Example 21, 3-(4-Hydroxyphenyl)-5-(3-hydroxyphenyl)-4-methylthiophene-2-carbaldehyde oxime] had a melting point of 240 to 241 °C. For the same compound, the IC50 at human ERα came to 196 nM. At human ERβ, the IC50 came to 123 nM.

In turn, `CON=Cc1sc(-c2ccc(O)cc2C)c(C)c1-c1ccc(O)c(F)c1` [Example 23, 3-(3-Fluoro-4-hydroxyphenyl)-5-(4-hydroxy-2-methylphenyl)-4-methylthiophene-2-carbaldehyde O-methyloxime] showed a melting point of 172 to 177 °C. Besides, the 50% inhibitory concentration (IC50) on human ERα is 73 nM. For the same compound, at human ERβ, the IC50 stood at 57 nM.

On to `Cc1cc(O)ccc1-c1sc(C=O)c(-c2ccc(O)cc2)c1C` [Example 11, 5-(4-Hydroxy-2-methylphenyl)-3-(4-hydroxyphenyl)-4-methyl-2-thiophenecarbaldehyde], for which the IC50 at human ERα was 68 nM; at human ERβ, 7.8 nM.

With `Cc1cc(O)ccc1-c1sc(C=O)c(-c2ccc(O)c(F)c2)c1C` [Example 12, 3-(3-Fluoro-4-hydroxyphenyl)-5-(4-hydroxy-2-methylphenyl)-4-methylthiophene-2-carbaldehyde], the values for the IC50 on human ERα and at human ERβ were 89 nM and 13 nM, respectively.

Regarding `Cc1c(-c2ccc(O)cc2)sc(C=O)c1-c1ccc(O)cc1` [Example 15, 3,5-Bis(4-hydroxyphenyl)-4-methylthiophene-2-carbaldehyde], the melting point was in the range of 223 to 225 °C. Further, the “Fold upregulation of metallothionein-II mRNA” value in data set [1] is listed as 6.0. In addition, on human ERα, the IC50 was determined as 31 nM. Besides, the IC50 on human ERβ amounted to 2.1 nM.

On to `Cc1cc(O)ccc1-c1c(C=O)sc(-c2ccc(O)c(F)c2)c1C` [Example 9, 5-(3-Fluoro-4-hydroxyphenyl)-3-(4-hydroxy-2-methylphenyl)-4-methylthiophene-2-carbaldehyde], for which the half-inhibitory concentration (IC50) on human ERα came to 85 nM; at human ERβ it was 12 nM.

`Cc1c(-c2cccc(O)c2)sc(C#N)c1-c1ccc(O)cc1` [Example 22, 3-(4-Hydroxyphenyl)-5-(3-hydroxyphenyl)-4-methylthiophene-2-carbonitrile]: the IC50 on human ERα was determined as 299 nM; on human ERβ, 73 nM.

In the case of `Cc1c(-c2ccc(O)cc2)sc(C=NO)c1-c1ccc(O)cc1` (mixture of isomers) [Example 18, 3,5-Bis(4-hydroxyphenyl)-4-methylthiophene-2-carbaldehyde oxime], the IC50 amounted to 86 nM on human ERα and 42 nM at human ERβ.

The compound `Cc1c(-c2ccc(O)cc2)sc(C#N)c1-c1cccc(O)c1` [Example 17, 3-(3-Hydroxyphenyl)-5-(4-hydroxyphenyl)-4-methylthiophene-2-carbonitrile] had a melting point of 220 to 222 °C. In addition, on human ERα, the IC50 is 305 nM. In addition, the IC50 on human ERβ worked out at 83 nM.

For the compound `CON=Cc1sc(-c2ccc(O)cc2)c(C)c1-c1ccc(O)cc1` [Example 20, 3,5-Bis(4-hydroxyphenyl)-4-methylthiophene-2-carbaldehyde O-methyloxime], the IC50 on human ERα is 152 nM; at human ERβ it was 28 nM.

In the case of `Cc1c(-c2ccc(O)c(Cl)c2)sc(C=O)c1-c1ccc(O)cc1` [Example 13, 5-(3-Chloro-4-hydroxyphenyl)-3-(4-hydroxyphenyl)-4-methylthiophene-2-carbaldehyde], the IC50 on human ERα was 293 nM; on human ERβ, 27 nM.

The compound `Cc1c(-c2ccc(O)cc2)sc(C=O)c1-c1cccc(O)c1` [Example 1, 3-(3-Hydroxyphenyl)-5-(4-hydroxyphenyl)-4-methylthiophene-2-carbaldehyde] registered a melting point of 103 to 104 °C. Moreover, the IC50 at human ERα is 212 nM. Further, the IC50 on human ERβ was 54 nM.

For `Cc1cc(O)ccc1-c1c(C=O)sc(-c2ccc(O)cc2)c1C` [Example 3, 3-(4-Hydroxy-2-methylphenyl)-5-(4-hydroxyphenyl)-4-methyl-2-thiophenecarbaldehyde], the melting point lay within 244 to 247 °C. Further, the IC50 on human ERα came to 29 nM. The IC50 on human ERβ was found to be 5.5 nM.

As to `Cc1ccc(O)cc1-c1c(C=O)sc(-c2ccc(O)cc2)c1C` [Example 4, 3-(5-Hydroxy-2-methylphenyl)-5-(4-hydroxyphenyl)-4-methyl-2-thiophenecarbaldehyde], the half-maximal inhibitory concentration (IC50) at human ERα worked out at 464 nM; on human ERβ, 174 nM.

Turning to `Cc1c(-c2ccc(O)c(F)c2)sc(C=O)c1-c1ccc(O)c(Cl)c1` [Example 10, 3-(3-Chloro-4-hydroxyphenyl)-5-(3-fluoro-4-hydroxyphenyl)-4-methylthiophene-2-carbaldehyde], the melting point fell in the range of 252 to 254 °C. The IC50 at human ERα was found to be 88 nM. The IC50 on human ERβ amounted to 4 nM.

For the compound `Cc1c(-c2ccc(O)cc2)sc(C=O)c1-c1ccc(O)c(Cl)c1` [Example 7, 3-(3-Chloro-4-hydroxyphenyl)-5-(4-hydroxyphenyl)-4-methylthiophene-2-carbaldehyde], the IC50 at human ERα is 31 nM; on human ERβ, 1.7 nM.
